“Also recorded” adds a separate entry of the source. Values belong to the molecule of their own block, whether it stands above or below them.
Tests used:
F.Xa = settings: substrate affinity; cited from earlier work
bovine Factor Xa [1] = experiment: Inhibition of bovine Xa activity on chromogenic substrate; format: biochemical; settings: result in words
Experimental: (§1) Regarding the methods, synthetic substrates having a chromogenic end group such as pNA (para- nitroanilide) are preferably used, enabling easy monitoring of the progress of the coagulation by spectrophotometer methods. […] The reactions were monitored at 405 nm in a spectrophotometer connected to a computer and the kinetic parameter were calculated from the appropriate extinction coefficients by a Jackson-Labanowski linear regression program. The measurements were carried out in disposable polystyrene cuvettes at pH of 7.8 and a temperature of 25° C.

bovine thrombin = experiment: Inhibition of bovine thrombin activity on chromogenic substrate; format: biochemical; settings: result in words
Experimental: as §1

bovine F.Xa = experiment: Affinity binding to bovine F.Xa immobilized on Affi-Gel 10; settings: leech saliva passed through column, pH 7.9
Experimental: The inhibitor/modulator of the present invention may be isolated from the saliva by adsorption on an Affi-Gel column on which bovine F.Xa is fixed and subsequent elution with acetic acid. Hirudin was not adsorbed on said gel. Affi-Gel 10 is used, which is a derivatized ross-linked agarose containing a 10-atom spacer arm esterified to N-hydroxysuccinimide. The capacity of this gel is 10 micromoles/ml.
1. Coupling. To 1ml washed Affi-Gel 10 in a mini-column were added 2ml of a dialyzed BXa solution (40 nmoles) in 0.05 M Hepes/0.1 M NaCl buffer pH 7.5. The column was shaken for 2 h at room temp. The supernatant was then run off the column, which was not allowed to dry. Ninety four percent of the BXa load was bound to the gel.
3. Affinity binding of XaM. Leech saliva (40 ml, 305 pmoles XaM) was adjusted to pH 7.9 by adding 1% v/v 1M Tris pH 8 and was passed through the column. Ninety two percent of the XaM was bound to the gel. Hirudin was not bound.

bovine Factor Xa [2] = settings: literature (Tuszynski, Gasic and Gasic 1987); cited from earlier work

Molecule: N=C(N)NCCC[C@H](NC(=O)[C@@H]1CCCCN1C(=O)[C@H](N)Cc1ccccc1)C(=O)Nc1ccc([N+](=O)[O-])cc1 [S2238, D-Phe-Pipecolyl-L-Arg-pNa]
Km (F.Xa): 46.9 µM

adsorption on Affi-Gel with fixed bovine F.Xa (bovine F.Xa): not adsorbed; also recorded: not bound
Molecule: hirudin
inhibition of bovine F.Xa (bovine Factor Xa [1]): does not inhibit bovine F.Xa
inhibition of thrombin (bovine thrombin): inhibits thrombin

B1: antistasin (protein, UniProt P15358 18-136, looked up)
Antistasin: QGPFGPGCEEAGCPEGSACNIITDRCTCSGVRCRMHCPHGFQRSRYGCEFCKCRLEPMKATCDISECPEGMMCSRLTNKCDCKIDINCRKTCPNGLKRDKLGCEYCECRPKRKLIPRLS
remaining BXa activity at which the dose-response curve flattens out (bovine Factor Xa [2]): about 50%

— patent US5182113A, “Factor Xa inibitor from leech and pharmaceutical compositions containing same” (Bio-Technology General Corp., priority 1988, dated 1993)
